Data set [1] in a line: Cytotoxicity against human Med cells by MTT assay. In kind it is cell-based. The note with it: read-out: ED50 (the source's name). In general terms: Formazan colour is commonly taken as a measure of viable cells.
The subject of a further data set is HeLa. Description: Cytotoxicity against human HeLa cells by MTT assay. Conditions: read-out: ED50 (the source's name). The class given is functional.
Another data set concerns KB. The experiment in a line: Cytotoxicity against human KB cells by MTT assay. The note with it: read-out: ED50 (the source's name). The class given is functional.
Data set [2] is described as follows: Cytotoxicity against human Hepa59T/VGH cells by MTT assay. In kind it is functional. The note with it: HEPA 59T/VGH, read-out: ED50 (the source's name).

SMILES strings stand for the structures. In brackets after ≈: the same amount, converted by molar mass.

For `C=C1C(=O)O[C@@H]2C[C@H]1C/C=C(\C)[C@@H](O)CC/C(C)=C/CC[C@]2(C)O` [MANAARENOLIDE G], in data set [1], the CC50 was determined as 13.4 µg/mL (≈ 40.1 µM). For the same compound, the EC50 in the data set with HeLa is 10.9 µg/mL (≈ 32.6 µM); with KB, 8.7 µg/mL (≈ 26 µM); in data set [2], 7.2 µg/mL (≈ 21.5 µM).
As for `C=C1C(=O)O[C@@H]2C[C@H]1C/C=C(/C)[C@@H](O)CC/C(C)=C/CC[C@]2(C)O` [MANAARENOLIDE H], in data set [1], the CC50 worked out at 5.8 µg/mL (≈ 17.3 µM). Moreover, the values for the EC50 (in the data set with HeLa; with KB; in data set [2]) were 9.3 µg/mL (≈ 27.8 µM), 7.6 µg/mL (≈ 22.7 µM) and 7.4 µg/mL (≈ 22.1 µM), respectively.

(Values after ChEMBL document CHEMBL1158032, “Manaarenolides A-I, diterpenoids from the soft coral Sinularia manaarensis” (J Nat Prod, 2006).)
